“And” between values parts separate entries of the source, which are not always exact repeats. Equal entries are not always repeated. “Also recorded” adds a separate entry of the source. Marks after values point to notes of the source that are not given here.
Legend:
Type in all cases: in vivo
[1] = tested on: male SD rats, obstruction-released kidney (glomerular lesions and tubulointerstitial lesions); test: Obstruction release model after complete obstruction of unilateral ureter for 14 days (Example 2-1); parameters: key to Tubulointerstitial lesions: level of lesions (quality): summed lesion score: + = 1, ++ = 2, +++ = 3 points; conditions: rat; for Regeneration CD11b^−CD2^+ macrophages to tubulointerstitial lesions, Determination: increase + / Coincidence of two regeneration macrophages being positive / Glomerular lesions: proportion of lesioned glomeruli (%) / Number of regeneration CD11b^+CD2^+ macrophages to glomerular lesions: number of positive cells per glomerulus / Number of regeneration CD11b^−CD2^+ macrophages to tubulointerstitial lesions: number of positive cells (CD11b) in five fields of 200× magnification / Regeneration CD11b^+CD2^+ macrophages to glomerular lesions, Determination: increase = + / Serum creatinine / Tubulointerstitial lesions: level of lesions (quality): 30 mg/kg subcutaneously every day for 21 days, one value per animal
Text: (§1) That is, the rat was laparotomized under anesthesia with ether and left ureter was ligated with 7-0 Nylon at the height of the margin of lower pole of kidney to close the abdomen. On the 14th day after obstruction, the obstruction was released and urinary passage was reconstructed using a cuff. Thus, after 14 days, the part of ligated obstructed ureter was resected, a polyethylene tube of 25 gages (manufactured by Nippon Sherwood) was used as a cuff and inserted into and retained at the lumen from the cut end of the lower normal ureter, then the cuff was also retained in the expanded upper ureter and each of them was ligated and fixed by 7-0 Nylon to reconstruct the urinary passage. At the same time, the right kidney at the opposite side was excised. After the release of the obstruction, body weight was measured, blood was drawn on the 2nd day, 5th day and 7th day from the release to measure serum creatinine, then the rat was killed under anesthesia and the left obstruction-released kidney was excised.
With regard to the excised kidney, there were carried out measurements of weight of the kidney, creatinine concentration mg/dl in plasma as an indicator of kidney function and pathological test for the kidney, and also leukocyte cells which infiltrate the obstruction-released kidney were immunopathologically studied with cell surface markers for ED1 macrophages, CD11b (ED8) positive macrophages and CD5 positive lymphocytes. A number of positive cells was expressed as a number of cells per glomerulus from measured numbers of positive cells in five glomeruli, and for a number in tubulointerstitial tissue, it was expressed by the total number of cells existing in five fields of 200×magnification. For macrophages, a number of CD11b positive cells existing in glomerulus was considered as a number of CD11b^+CD2^+ macrophages and a case of existing not less than one positive cell per glomerulus was considered as positive (+). In the tubulointerstitial tissue, a number of […] 60 CD11b positive cells was considered as positive (+), or a case of CD11b^−CD2^+ macrophages dominantly increasing. Scoring of evaluation of tubulointerstitial lesions was as follows: + gets 1-point as a light lesion; ++ gets 2-point as a moderate lesion; and +++ gets3-point as a severe lesion. For glomerular lesions, when a proportion of lesioned glomeruli was decreased to not more than 40%, and for tubulointerstitial lesions, when a score of the lesions was not more than 4, it was considered as improved.
For glomerular lesions, by counting glomeruli causing thickening of Bowman's capsule wall and glomerular hyalinosis, a proportion of glomeruli having lesions was calculated. For tubulointerstitial lesions, by qualifying hyperplasia of tubular basement membrane and interstitial fibrosis, levels of the lesions were represented.
(§2) An in vivo biological test was carried out for the γ-lactone derivative according to the present invention using this model. Bulk powder of a test compound was dissolved in sterile physiological saline together with gum arabic, and concentrations of the test compound and gum arabic were adjusted to 30 mg/mL and 5% respectively. The preparation was administered orally or subcutaneously injected at the dose of 30 mg/kg or 3 mg/kg every day. The administration was conducted for the total 21 days of the obstructed period for 14 days and after release of the obstruction for 7 days.
For test groups, a group administered single compound group, a group administered both compound group and a control group administered solution of gum arabic were set up and compared for renal functions and morphological evaluations, as well as numbers of ED1, CD5, CD11b positive cells by means of immunopathology.

[2] = tested on: male SDT rats (spontaneously type II diabetes model), complete skin-excised wounds; test: Complete skin-excised model, wound healing; conditions: SDT rat, 10 mg/kg subcutaneously every day
Text: Using male SDT rats of 28-30 weeks age, which were a spontaneously type II diabetes model, promoting effect on repair and regeneration in wound healing after complete skin excision were examined according to a partially modified method of Breitbout AS et al. (Ann Plast Surg 1999, 43: 632). That is, an animal was shaved at its back under anesthesia with ether, and skin in 2×2 cm size was excised together with panniculus carnosus in same size to make two complete skin-excised wounds per animal.
Healings of the wounds were observed on the 1st day, 4th day, 7th day, 12h day, 15th day, 21st day and 28th day from the operation. An area of the wounds was obtained as the product of the average vertical length and the average horizontal length which were measured along with a direction of the longest part in the wound.
A test compound was dissolved in sterile physiological saline together with gum arabic. Concentrations of the test compound and gum arabic were adjusted to 30 mg/mL and 5% respectively. The preparation was subcutaneously injected at the dose of 10 mg/kg every day. The administration was started on 6 days before the operation and continued to 28 days after the operation.

[3] = tested on: male SD rats, obstruction-released kidney (glomerular lesions and tubulointerstitial lesions); test: Obstruction release model after complete obstruction of unilateral ureter for 14 days (Example 2-2); parameters: key to Tubulointerstitial lesions: level of lesions: summed lesion score; + = 1, ++ = 2, +++ = 3; ≤6.5 improved; conditions: rat, 30 mg/kg subcutaneously
Text: as §1, §2
For cell surface markers of leukocyte cells which infiltrate the obstruction-released kidney, ED1, CD11b (ED8), CD5 and CD2 were used. […] For CD5^+, a number of not less than 20 per glomerulus was considered as positive. For glomerular lesions, which was characterized by Bowman's capsule wall, glomerular hyalinosis, dilation of urinary space pole and hypertrophy of parietal cells, 50 glomeruli were evaluated to obtain a proportion of pathologic glomeruli. For tubulointerstitial lesions, levels of the lesions were represented by qualifying hyperplasia of tubular basement membrane, tubular enlargement and atrophy and interstitial fibrosis. Scoring was as follows: + gets 1-point as a light lesion; ++ gets 2-point as a moderate lesion; and +++ gets 3-point as a severe lesion. Levels of cell infiltration were evaluated qualitatively according to the above three-point scale. For glomerular lesions, when a proportion of lesioned glomeruli was decreased to not more than 20%, and for tubulointerstitial lesions, when a score of the lesions was not more than 6.5, it was considered as improved.
Numbers of cells positive for CD11b (ED8), CD2 and CD5 were compared by means of immunopathology, and CD11b^+CD2^+ macrophages were considered as regeneration-promoting macrophages in glomeruli and CD11b^−CD2^+CD5+ macrophages were considered as regeneration-promoting macrophages to tubulointerstitial lesions, and herewith, it was estimated whether each cell group is quantitatively dominant or not.

## O=C1CCC(F)(C(=O)OCc2ccccc2)O1 (stereo not shown) [compound (II-2), 2-fluoro-5-oxotetrahydrofuran-2-carboxylic acid benzyl ester]
[1]; 30 mg/kg subcutaneously
  cases with increased regeneration-promoting CD11b^+CD2^+ macrophages to glomerular lesions: Regeneration-promoting macrophages were increased on both lesions
  cases with increased regeneration-promoting CD11b^−CD2^+ macrophages to tubulointerstitial lesions: Regeneration-promoting macrophages were increased on both lesions
[1]
  Regeneration CD11b^−CD2^+ macrophages to tubulointerstitial lesions, Determination: increase +: + (a number of not more than 60 CD11b positive cells was considered as positive (+))
[1]; 30 mg/kg
  Coincidence of two regeneration macrophages being positive: Not coincident; also recorded: Coincident
  Glomerular lesions: proportion of lesioned glomeruli (%): 32% and 28% and 19% and 18%
  Number of regeneration CD11b^+CD2^+ macrophages to glomerular lesions: number of positive cells per glomerulus: 0.7 cells per glomerulus and 1.7 cells per glomerulus and 2.3 cells per glomerulus and 1.4 cells per glomerulus
  Number of regeneration CD11b^−CD2^+ macrophages to tubulointerstitial lesions: number of positive cells (CD11b) in five fields of 200× magnification: 33 cells in five fields of 200× m and 35 cells in five fields of 200× m and 27 cells in five fields of 200× m and 16 cells in five fields of 200× m
  Regeneration CD11b^+CD2^+ macrophages to glomerular lesions, Determination: increase = +: + (a case of existing not less than one positive cell per glomerulus was considered as positive (+))
  Serum creatinine: 2.0 mg/dl (2×) and 2.5 mg/dl and 2.3 mg/dl
  Tubulointerstitial lesions: level of lesions (quality): 4.5 (2×) and 6.5 (2×)

## C[C@@H](OC(=O)[C@]1(Oc2ccc(F)cc2)CCC(=O)O1)c1ccc2ccccc2c1 [compound (I-1), (R)-1-naphthalen-2-ylethyl (S)-2-(4-fluorophenoxy)-5-oxotetrahydrofuran-2-carboxylate]
[1]; 30 mg/kg subcutaneously
  cases with increased regeneration-promoting CD11b^+CD2^+ macrophages to glomerular lesions: two of four cases
  cases with increased regeneration-promoting CD11b^−CD2^+ macrophages to tubulointerstitial lesions: three of four cases
  difference in serum creatinine: no difference
  pathological improvement of glomerular lesions (cases): no glomerular lesion was improved
  pathological improvement of tubulointerstitial lesions (cases): three of four cases
[1]; 30 mg/kg
  Coincidence of two regeneration macrophages being positive: Not coincident; also recorded: Coincident
  Glomerular lesions: proportion of lesioned glomeruli (%): 29% and 39% and 57% and 67%
  Number of regeneration CD11b^+CD2^+ macrophages to glomerular lesions: number of positive cells per glomerulus: 0.5 cells per glomerulus and 2.0 cells per glomerulus and 0.0 cells per glomerulus and 1.3 cells per glomerulus
  Number of regeneration CD11b^−CD2^+ macrophages to tubulointerstitial lesions: number of positive cells (CD11b) in five fields of 200× magnification: 24 cells in five fields of 200× m and 140 cells in five fields of 200× m and 59 cells in five fields of 200× m and 41 cells in five fields of 200× m
  Regeneration CD11b^+CD2^+ macrophages to glomerular lesions, Determination: increase = +: + (a case of existing not less than one positive cell per glomerulus was considered as positive (+))
  Regeneration CD11b^−CD2^+ macrophages to tubulointerstitial lesions, Determination: increase +: + (a number of not more than 60 CD11b positive cells was considered as positive (+))
  Serum creatinine: 3.0 mg/dL and 2.7 mg/dL and 2.8 mg/dL and 2.2 mg/dL
  Tubulointerstitial lesions: level of lesions (quality): 7.0 and 4.0 and 3.0 (2×)
[2]; 1st day after complete skin excision
  Excised wound area (cm^2): 3.38 cm^2
[2]; 4th day after complete skin excision
  Excised wound area (cm^2): 2.10 cm^2
[2]; 7th day after complete skin excision
  Excised wound area (cm^2): 1.45* cm^2
[2]; 12th day after complete skin excision
  Excised wound area (cm^2): 0.56* cm^2
[2]; 15th day after complete skin excision
  Excised wound area (cm^2): 0.51 cm^2
[2]; 21st day after complete skin excision
  Excised wound area (cm^2): 0.40 cm^2
[2]; 21st day after the operation
  Crust formation/number of wound: 0/8
[2]; 28th day
  crust formation on the surface of repaired wounds (in words): no crust formation occurred
[2]; 28th day after complete skin excision
  Excised wound area (cm^2): 0.18* cm^2
[2]; 28th day after the operation
  Crust formation/number of wound: 0/8
[2]; versus the control group, 10 mg/kg
  promoting effect on wound healing (in words): more promoting effect on wound healing at 7th day to 12th day after the operation; also recorded: in 28th day of healing period, it showed promoting effect on wound healing; also recorded: promoting effect on healing of dermis and epidermis including panniculus carnosus

## O=C1OC(Cl)(C(=O)OCc2ccccc2)c2ccccc21 (stereo not shown) [compound (I-3), 1-chloro-3-oxo-1,3-dihydroisobenzofuran-1-carboxylic acid benzyl ester]
[3]
  cases in which regeneration-promoting CD11b^+CD2^+ macrophages were predominant in glomeruli: three of four cases
  cases in which regeneration-promoting CD11b^−CD2^+CD5+ macrophages were predominant in tubulointerstitial lesions: three of four cases
  difference in serum creatinine: no difference
  pathological improvement of glomerular lesions (cases): all four cases
  pathological improvement of tubulointerstitial lesions (cases): two of four cases
[3]; one value per animal, 30 mg/kg
  Coincidence of two regeneration macrophages being positive: Coincident
  Degree of cell infiltration: + and +++
  Number of regeneration CD11b^+CD2^+ macrophages to glomerular lesions: number of positive cells per glomerulus CD11b^+CD2^+: 4.3 cells per glomerulus and 1.8 cells per glomerulus (2×) and 0.5 cells per glomerulus
  Number of regeneration CD11b^−CD2^+CD5^+ macrophages to tubulointerstitial lesions: number of positive cells in five fields of 200× magnification, CD5^+: 77 cells in five fields of 200× m and 25 cells in five fields of 200× m and 60 cells in five fields of 200× m and 20 cells in five fields of 200× m
  Number of regeneration CD11b^−CD2^+CD5^+ macrophages to tubulointerstitial lesions: number of positive cells in five fields of 200× magnification, CD11b^+: 62 cells in five fields of 200× m and 53 cells in five fields of 200× m and 14 cells in five fields of 200× m and 22 cells in five fields of 200× m
  Regeneration macrophages to glomerular lesions, Determination Increase +: + (a case of existing not less than one positive cell per glomerulus was considered as positive (+))
  Serum creatinine: 2.8 mg/dL and 1.4 mg/dL and 2.1 mg/dL and 1.7 mg/dL
  Tubulointerstitial lesions: level of lesions: 6.5 and 3.5 and 7.0 and 8.5
[3]; one value per animal, 50 glomeruli evaluated
  Glomerular lesions: proportion of lesioned glomeruli (%): <1%
[3]; one value per animal, CD11b^+ not more than 60 and CD5^+ not less than 20, 30 mg/kg
  Regeneration CD11b^−CD2^+CD5^+ macrophages to tubulointerstitial lesions, Determination Increase +: + (For CD5^+, a number of not less than 20 per glomerulus was considered as positive)

From patent US20060014709A1, “Drug or cosmetic” (priority 2002, published 2006)
